Patent publication US11578081B1, “Crystal form as inhibitor of ACC1 and ACC2, and preparation method therefor and use thereof” (ZHANGZHOU PIEN TZE HUANG PHARMACEUTICAL CO., LTD., priority 2019, dated 2023)

How the values were obtained:
[1] = Physical stability test of crystal form A as a solid under temperature, humidity and light (XRPD); format: physicochemical; conditions: 60° C. and 92.5% RH for 5 and 10 days; ICH visible and UV light; 60° C./75% RH 1 and 2 months; 40° C./75% RH 1, 2 and 3 months
Procedure: In order to evaluate the solid stability of a crystal form A, the influencing factors (high temperature, high humidity and light), accelerated stability conditions and intermediate stability conditions were investigated for the crystal form A.
The crystal form A was placed under high temperature (60° C., closed dish) and high humidity (room temperature, 92.5% RH (relative humidity), wrapped in a parafilm with 5 to 10 small holes) for 5 days and 10 days. According to ICH conditions (visible illuminance reached 1.2E06 Lux·hrs, and ultraviolet illuminance reached 200 W·hrs/m^2), the crystal form A was placed under visible light and ultraviolet light (the shading control group was wrapped in tin foil) in closed dish, and meanwhile, the crystal form A was placed under accelerated stability conditions (60° C./75% RH, wrapped in a parafilm with 5 to 10 small holes) for 1 and 2 months, and under intermediate stability conditions (40° C./75% RH, wrapped in a parafilm with 5 to 10 small holes) for 1, 2 and 3 months. The samples after placement were characterized by XRPD to detect the change of the crystal form.

[2] = target: human acetyl-CoA carboxylase 1 (hACC1) (Homo sapiens, UniProt Q13085); experiment: In vitro ACC enzyme inhibition (ADP fluorescence), hACC1; format: biochemical; conditions: pre-incubated 15 minutes, 1 hour at room temperature
Procedure: (§1) To evaluate the ability of a test compound to inhibit acetyl-CoA carboxylase (ACC) by determining the IC50 value.
(§2) 1. Proteins: human acetyl-CoA carboxylase 1 (hACC1) and human acetyl-CoA carboxylase 2 (hACC2).
(§3) 3. Cofactors: acetyl-CoA and ATP (adenosine triphosphate)
(§4) 4. Activator: potassium citrate
(§5) 1. One-fold enzyme/substrate/cofactor was added to microwells of a well plate.
(§6) 2. According to an Acoustic technique, a solution of a compound in DMSO was added to the enzyme mixture, and the resulting mixture was pre-incubated for 15 minutes.
(§7) 3. ATP was added thereto to initiate the reaction, and the mixture was shaken uniformly.
(§8) 4. The mixture was incubated for 1 hour at room temperature.
(§9) 5. The reaction was quenched, and then incubated for additional 40 minutes.
(§10) 6. A detection reagent was added and the resulting mixture was incubated for 30 minutes.
(§11) 7. Fluorescence was tested.
(§12) 8. Data analysis was performed: based on the standard curve of ADP, the fluorescence signal was converted to the ADP product concentration and the enzyme activity was calculated. The curve was fitted using Graphpad Prism software to obtain the IC50 value.

[3] = test system: HFD+CCl4-induced NASH mouse model; experiment: In vivo pharmacodynamic study in HFD+CCl4-induced NASH mouse model; conditions: HFD+CCl4 mice; 0.5, 1, 3 mg/kg by gavage QD day 0 to day 27; reference I-181 3 mg/kg
Excerpt: To study the effect of a compound on improving NASH and liver fibrosis in an HFD+CCl4 mouse model, with I-181 as a reference compound.
I-181 is an acetyl-CoA carboxylase inhibitor and is currently undergoing a phase II clinical study on non-alcoholic fatty liver disease (NAFLD). The HFD+CCl4 mouse model used in this study is an animal model that simulates human non-alcoholic fatty liver disease evolving into NASH. High-fat diet leads to fat accumulation and steatosis in liver cells; CCl4 (intraperitoneal injection, twice a week) simulates the “second hit” of liver injury.
The modeling for this experiment included two steps: high-fat diet feeding and CCl4 induction. Firstly, the mice were fed with high-fat diet to induce non-alcoholic fatty liver, and the mice weighing more than (>) 38 g were selected and continuously fed with high-fat diet, accompanied by the intraperitoneal injection of 25% CCl4 ([…], twice a week, for a total of four weeks). The day of starting CCl4 administration was set as day 0, and the time of starting CCl4 administration was set as hour 0. On the day of starting CCl4 administration, the administration by gavage was started, and the administration volume of each group was 5 mL/kg, once a day for 4 weeks (28 days). The injection time of CCl4 should be more than 4 hours apart from the first administration time point of the day. […]

[4] = Pharmacokinetic evaluation in C57BL/6 mice; format: in vivo; conditions: mouse, plasma, male C57BL/6 mice
Procedure: To test the pharmacokinetics of the compound in C57BL/6 mice Experimental materials:
C57BL/6 mice (male, 18 to 30 g, 7 to 9 weeks old, Shanghai Lingchang Biotechnology Co., Ltd.)
A clear solution of a test compound (0.5 mg/ml, 10% DMSO, 10% polyethylene glycol stearate, and 80% water) was injected via tail veins into 4 male C57BL/6 mice (overnight fasting, 7 to 9 weeks old), at a dose of 2.0 mg/kg. A suspension of the test compound or the clear solution thereof (1 mg/ml, 10% PEG400, 90% (0.5% methylcellulose+0.2% Tween 80)) was administered by gavage to 4 male C57BL/6 mice (overnight fasting, 7 to 9 weeks old), at a dose of 10 mg/kg.
Two mice were set in a group and subjected to blood sampling alternatively, with 4 to 5 blood sampling time points per mouse. At 0.0833 h (IV group only), 0.25 h, 0.5 h, 1.0 h, 2.0 h, 4.0 h, 6.0 h, 8.0 h, and 24 h after the mice were administered intravenously or by gavage, about 30 μL of blood was collected by saphenous vein puncture and placed in an anticoagulation tube supplemented with EDTA-K2, and the plasma was separated by centrifugation. The LC-MS/MS method was used to determine the blood drug concentration, and the WinNonlin™ Version 6.3 (Pharsight, Mountain View, Calif.) pharmacokinetic software was used to calculate the relevant pharmacokinetic parameters by the non-compartmental model linear logarithmic trapezoidal method.

[5] = target: human acetyl-CoA carboxylase 2 (hACC2) (Homo sapiens, UniProt O00763); experiment: In vitro ACC enzyme inhibition (ADP fluorescence), hACC2; format: biochemical; conditions: pre-incubated 15 minutes, 1 hour at room temperature
Procedure: as §1, §2, §3, §4, §5, §6, §7, §8, §9, §10, §11, §12

Sequence of human acetyl-CoA carboxylase 2 (hACC2) (O00763 whole entry): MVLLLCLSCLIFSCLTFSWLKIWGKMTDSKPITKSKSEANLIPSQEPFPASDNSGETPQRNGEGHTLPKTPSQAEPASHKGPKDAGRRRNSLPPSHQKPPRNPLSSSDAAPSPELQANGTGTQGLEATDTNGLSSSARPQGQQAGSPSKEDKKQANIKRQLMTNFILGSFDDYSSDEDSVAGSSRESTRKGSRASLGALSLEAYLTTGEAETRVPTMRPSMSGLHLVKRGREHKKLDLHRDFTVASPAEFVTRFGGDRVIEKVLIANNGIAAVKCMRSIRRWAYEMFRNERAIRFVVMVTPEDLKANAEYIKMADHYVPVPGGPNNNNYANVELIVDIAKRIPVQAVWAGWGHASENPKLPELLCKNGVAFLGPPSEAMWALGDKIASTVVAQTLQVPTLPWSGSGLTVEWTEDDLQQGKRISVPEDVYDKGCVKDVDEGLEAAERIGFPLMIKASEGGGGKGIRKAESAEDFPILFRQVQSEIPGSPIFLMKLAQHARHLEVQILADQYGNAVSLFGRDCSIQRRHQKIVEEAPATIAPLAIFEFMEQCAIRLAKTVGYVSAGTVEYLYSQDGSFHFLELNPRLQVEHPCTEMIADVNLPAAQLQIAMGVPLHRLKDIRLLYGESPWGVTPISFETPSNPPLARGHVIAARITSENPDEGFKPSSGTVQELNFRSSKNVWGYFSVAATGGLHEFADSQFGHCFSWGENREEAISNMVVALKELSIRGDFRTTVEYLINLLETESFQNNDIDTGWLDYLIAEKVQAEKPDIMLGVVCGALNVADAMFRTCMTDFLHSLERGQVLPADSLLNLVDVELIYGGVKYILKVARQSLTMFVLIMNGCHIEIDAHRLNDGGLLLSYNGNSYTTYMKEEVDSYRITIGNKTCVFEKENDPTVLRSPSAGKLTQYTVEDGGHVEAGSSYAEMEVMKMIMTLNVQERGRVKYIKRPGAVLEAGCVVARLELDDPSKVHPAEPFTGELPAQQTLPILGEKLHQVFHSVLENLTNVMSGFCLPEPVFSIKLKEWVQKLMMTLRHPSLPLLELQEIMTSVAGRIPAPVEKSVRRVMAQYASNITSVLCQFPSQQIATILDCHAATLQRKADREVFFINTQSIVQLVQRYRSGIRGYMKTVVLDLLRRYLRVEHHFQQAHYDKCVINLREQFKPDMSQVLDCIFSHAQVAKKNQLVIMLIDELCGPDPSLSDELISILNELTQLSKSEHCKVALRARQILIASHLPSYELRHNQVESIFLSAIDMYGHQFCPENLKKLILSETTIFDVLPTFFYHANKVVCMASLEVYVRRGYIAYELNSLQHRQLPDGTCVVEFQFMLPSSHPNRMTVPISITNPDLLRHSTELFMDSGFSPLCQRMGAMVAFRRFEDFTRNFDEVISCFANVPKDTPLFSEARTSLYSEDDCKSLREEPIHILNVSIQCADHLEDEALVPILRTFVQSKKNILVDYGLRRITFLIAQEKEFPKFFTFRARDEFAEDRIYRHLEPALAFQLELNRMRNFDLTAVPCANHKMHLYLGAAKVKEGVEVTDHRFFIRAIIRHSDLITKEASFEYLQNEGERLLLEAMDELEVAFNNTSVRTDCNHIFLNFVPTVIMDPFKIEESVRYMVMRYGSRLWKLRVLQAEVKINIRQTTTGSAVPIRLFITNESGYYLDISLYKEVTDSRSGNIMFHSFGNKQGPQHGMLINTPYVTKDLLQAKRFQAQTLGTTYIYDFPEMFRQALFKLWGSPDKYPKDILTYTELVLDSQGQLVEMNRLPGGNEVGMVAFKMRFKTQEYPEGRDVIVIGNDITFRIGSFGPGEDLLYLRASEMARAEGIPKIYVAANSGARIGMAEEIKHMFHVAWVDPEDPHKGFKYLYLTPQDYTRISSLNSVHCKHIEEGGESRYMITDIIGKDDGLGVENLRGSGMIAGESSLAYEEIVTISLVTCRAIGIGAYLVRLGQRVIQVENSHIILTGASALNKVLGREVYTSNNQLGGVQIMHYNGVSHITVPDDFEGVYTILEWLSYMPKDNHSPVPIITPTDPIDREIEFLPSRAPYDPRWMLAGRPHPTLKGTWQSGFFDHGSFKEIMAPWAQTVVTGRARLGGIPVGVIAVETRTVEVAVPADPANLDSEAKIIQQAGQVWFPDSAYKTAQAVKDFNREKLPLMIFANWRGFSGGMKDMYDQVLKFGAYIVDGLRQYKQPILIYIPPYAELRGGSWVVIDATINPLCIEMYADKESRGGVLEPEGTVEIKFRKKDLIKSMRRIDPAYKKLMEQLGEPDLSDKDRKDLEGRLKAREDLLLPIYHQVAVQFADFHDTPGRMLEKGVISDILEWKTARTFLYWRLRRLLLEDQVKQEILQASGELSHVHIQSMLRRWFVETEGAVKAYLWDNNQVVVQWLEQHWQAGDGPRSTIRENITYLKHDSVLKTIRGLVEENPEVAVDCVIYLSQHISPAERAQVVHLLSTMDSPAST

| IC50 [2] | bioavailability ([4]; po, gavage 10 mg/kg vs IV 2.0 mg/kg, read-out: Bioavailability F) | clearance ([4]; IV 2.0 mg/kg and gavage 10 mg/kg study, route per parameter not given, read-out: Clearance rate) | AUC ([4]; IV 2.0 mg/kg and gavage 10 mg/kg study, route per parameter not given, read-out: Concentration integral AUC) | half-life ([4]; IV 2.0 mg/kg and gavage 10 mg/kg study, route per parameter not given, read-out: Half-life T1/2 (converted)) | IC50 [5] | SMILES | Change of the crystal form (XRPD) after placement [1] | Efficacy on NAS versus reference compound [3] | Efficacy on fibrosis versus reference compound [3] |
| --- | --- | --- | --- | --- | --- | --- | --- | --- | --- |
| – | – | – | – | – | – | COc1ccccc1[C@H](Cn1nc(C(C)(C)C(=O)O)c(=O)c2c(C)c(-c3ncco3)sc21)OC1CCOCC1 [crystal form A] | remains unchanged under all stability conditions | – | – |
| 14.1 nM | 66.7% | 27.3 mL/min/kg | 7.21 µM·h | 1.85 h | 10.3 nM | COc1ccccc1[C@H](Cn1nc(C(C)(C)C(=O)O)c(=O)c2c(C)c(-c3ncco3)sc21)OC1CCOCC1 [Compound of formula (I)] | – | achieves the same efficacy as the reference compound at a higher dose | achieves the same efficacy as the reference compound at a higher dose |
